According to US8835429B2, “Pyrimidine compounds, their use as mTOR kinase and Pl3 kinase inhibitors, and their syntheses” (Wyeth LLC, priority 2009, dated 2014):

Key:
PI3K-gamma = PI3K-gamma (Homo sapiens, UniProt P48736); assay: PI3K-gamma fluorescence polarization assay; format: biochemical; conditions: 20 μM PIP2, 25 μM ATP; read-out: PI3Kγ IC50
Method: The reaction buffer was 20 mM HEPES, pH 7.5, 2 mM MgCl2, 0.05% CHAPS; and 0.01% βME (added fresh). The stop/detection buffer was 100 mM HEPES, pH 7.5, 4 mM EDTA, 0.05% CHAPS; ATP 20 mM in water; PIP2 (diC8, Echelon, Salt Lake City Utah cat #P-4508) 1 mM in water (MW=856.5). The GST-GRP was 1.75 mg/mL or 1.4 mg/mL in 10% glycerol. The red detector (TAMRA) was 2.5 μM. Nunc 384-well black polypropylene fluorescent plates were used for PI3K assays.
The assay is run by placing 5 μL of diluted enzyme per well, then 5 μL of diluted compound (or 9.5 μL enzyme then 0.5 μL compound in DMSO) is added and mixed. Then, 10 μL substrate is added to start the reaction. The samples are incubated 30-60 minutes, then the reaction is stopped by adding 20 μL stop/detector mix. PI3K is diluted with reaction buffer (e.g., 5 μL or 7.5 μL PI3K into 620 μL reaction buffer), and 5 μL of diluted enzyme is used per well. A 5 μL portion of reaction buffer or of drug diluted in buffer (e.g., 4 μL/100 so final DMSO is 1% in reaction) is added to each. Pipetting up and down mixes the samples. Alternatively, the enzyme can be diluted to 1215 μL. In this case 9.8 μL is added per well and 0.2 μL compound is added in DMSO.
To prepare 1 mL of substrate solution, 955 μL reaction buffer, 40 μL PIP2, and 2.5 μL ATP are mixed. 10 μL of substrate is added to each well to start the reaction. […] The stop/detector mix is prepared by mixing 4 μL red detector and 1.6 μL or 2.0 μL GST-GRP with 1 mL stop buffer, which results in 10 nM probe and 70 nM GST-GRP. 20 μL of the stop/detector mix is added to each well to stop the reaction. The plates are read after 30-90 minutes keeping the red probe solutions dark. For the zero time point, stop/detector mix is added to the enzyme just before adding substrate. For an extra control, stop/detector mix is added to buffer (no enzyme) and substrate or to just buffer (no substrate). […] The recommended reaction has 0.06 μL per 20 μL (0.015 μg/20 μL) or 0.01125 μg/15 μL or 0.75 μg/mL.
Plates are read on machines with filters for TAMRA. The units are mP with no enzyme controls reading app 190-220 mP units. Fully active enzyme reduces fluorescence polarization down to 70-100 mP after 30 minutes. An active compound raises the mP values halfway to control or to 120-150 mP units.

PI3K-alpha = PI3K-alpha (Homo sapiens, UniProt P42336); assay: PI3K-alpha fluorescence polarization assay; format: biochemical; conditions: 20 μM PIP2, 25 μM ATP; read-out: PI3Kα IC50
Summary of the method: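 PIP2 (diC8) and ATP substrate with PI3K in 20 mM HEPES pH 7.5, 2 mM MgCl2, 0.05% CHAPS, 0.01% βME; 1% DMSO final; 30–60 min reaction. Stopped with EDTA plus GST-GRP (70 nM) and TAMRA probe (10 nM); FP (mP) read after 30–90 min, with no-enzyme controls.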

mTOR = mTOR (Homo sapiens, UniProt P42345); assay: mTOR enzyme assay (DELFIA, purified FLAG-TOR, His6-S6K substrate); format: biochemical; set-up: FLAG; conditions: 100 μM ATP, 2 hours
MDA468 = assay: In vitro cell growth assay (MTS), MDA468; format: cell-based; conditions: 72 h, human breast line MDA468, three days after drug treatment, read-out: MDA IC50
LNCap = assay: In vitro cell growth assay (MTS), LNCap; format: cell-based; conditions: LNCaP, 72 h, human prostate line, three days after drug treatment

PI3K-gamma, sequence (P48736 whole entry, species assumed): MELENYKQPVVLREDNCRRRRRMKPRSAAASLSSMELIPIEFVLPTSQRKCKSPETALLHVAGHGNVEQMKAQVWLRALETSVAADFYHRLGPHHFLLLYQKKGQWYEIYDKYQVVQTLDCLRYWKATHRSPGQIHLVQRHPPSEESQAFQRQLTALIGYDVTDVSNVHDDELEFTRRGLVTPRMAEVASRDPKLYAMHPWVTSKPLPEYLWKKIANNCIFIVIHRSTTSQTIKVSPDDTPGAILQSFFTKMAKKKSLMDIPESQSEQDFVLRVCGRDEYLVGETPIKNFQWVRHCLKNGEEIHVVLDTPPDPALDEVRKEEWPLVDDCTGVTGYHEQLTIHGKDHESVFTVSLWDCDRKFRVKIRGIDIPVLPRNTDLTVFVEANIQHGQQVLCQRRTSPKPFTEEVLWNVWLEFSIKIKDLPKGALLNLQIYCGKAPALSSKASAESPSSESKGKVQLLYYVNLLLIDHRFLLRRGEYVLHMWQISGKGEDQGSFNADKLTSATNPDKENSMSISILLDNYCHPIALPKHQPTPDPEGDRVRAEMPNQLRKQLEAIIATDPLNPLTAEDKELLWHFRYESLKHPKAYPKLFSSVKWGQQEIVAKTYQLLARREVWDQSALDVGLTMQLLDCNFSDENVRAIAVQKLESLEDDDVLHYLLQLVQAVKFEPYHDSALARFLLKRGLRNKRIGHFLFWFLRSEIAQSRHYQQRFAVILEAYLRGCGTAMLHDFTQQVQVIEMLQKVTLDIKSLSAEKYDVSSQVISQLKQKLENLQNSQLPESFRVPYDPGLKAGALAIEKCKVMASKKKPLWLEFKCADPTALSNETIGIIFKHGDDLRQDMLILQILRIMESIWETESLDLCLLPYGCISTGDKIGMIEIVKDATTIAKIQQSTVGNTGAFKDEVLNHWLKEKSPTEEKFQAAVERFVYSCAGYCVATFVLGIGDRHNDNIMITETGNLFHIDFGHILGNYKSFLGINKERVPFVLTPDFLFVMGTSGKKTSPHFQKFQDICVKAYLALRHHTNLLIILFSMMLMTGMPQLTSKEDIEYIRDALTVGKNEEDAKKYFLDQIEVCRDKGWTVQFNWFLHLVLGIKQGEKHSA
mTOR, sequence (P42345 1360-2549 limits assumed): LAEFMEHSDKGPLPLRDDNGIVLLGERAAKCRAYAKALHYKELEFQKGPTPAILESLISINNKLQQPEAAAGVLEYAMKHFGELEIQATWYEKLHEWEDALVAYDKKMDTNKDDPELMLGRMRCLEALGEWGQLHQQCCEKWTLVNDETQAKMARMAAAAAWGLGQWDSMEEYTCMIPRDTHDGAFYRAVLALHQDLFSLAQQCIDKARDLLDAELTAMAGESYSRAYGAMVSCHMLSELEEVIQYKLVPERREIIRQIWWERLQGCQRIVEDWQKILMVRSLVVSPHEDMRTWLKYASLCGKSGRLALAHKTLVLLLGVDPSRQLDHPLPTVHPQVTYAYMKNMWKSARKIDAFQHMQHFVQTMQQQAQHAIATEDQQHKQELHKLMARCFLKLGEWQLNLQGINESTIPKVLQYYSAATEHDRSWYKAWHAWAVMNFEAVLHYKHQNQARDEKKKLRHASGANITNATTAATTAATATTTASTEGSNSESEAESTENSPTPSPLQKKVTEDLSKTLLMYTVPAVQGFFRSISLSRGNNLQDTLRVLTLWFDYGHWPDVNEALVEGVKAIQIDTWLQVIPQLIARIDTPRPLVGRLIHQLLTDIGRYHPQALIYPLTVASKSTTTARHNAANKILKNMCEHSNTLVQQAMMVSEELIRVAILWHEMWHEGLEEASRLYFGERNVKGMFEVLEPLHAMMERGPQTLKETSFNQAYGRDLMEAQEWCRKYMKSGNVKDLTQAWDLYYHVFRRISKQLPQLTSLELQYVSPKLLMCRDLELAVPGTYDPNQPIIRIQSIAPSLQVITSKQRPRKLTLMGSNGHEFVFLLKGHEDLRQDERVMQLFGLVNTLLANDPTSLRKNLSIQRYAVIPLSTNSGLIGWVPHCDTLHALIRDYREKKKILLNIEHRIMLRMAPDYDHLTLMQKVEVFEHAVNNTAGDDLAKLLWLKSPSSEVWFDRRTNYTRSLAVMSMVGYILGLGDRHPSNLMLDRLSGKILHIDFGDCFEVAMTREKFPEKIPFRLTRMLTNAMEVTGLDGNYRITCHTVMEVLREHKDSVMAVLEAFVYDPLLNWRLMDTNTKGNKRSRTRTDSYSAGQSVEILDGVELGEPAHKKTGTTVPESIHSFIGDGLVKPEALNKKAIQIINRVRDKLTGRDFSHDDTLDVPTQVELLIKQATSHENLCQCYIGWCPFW
PI3K-alpha, sequence (P42336 whole entry, species assumed): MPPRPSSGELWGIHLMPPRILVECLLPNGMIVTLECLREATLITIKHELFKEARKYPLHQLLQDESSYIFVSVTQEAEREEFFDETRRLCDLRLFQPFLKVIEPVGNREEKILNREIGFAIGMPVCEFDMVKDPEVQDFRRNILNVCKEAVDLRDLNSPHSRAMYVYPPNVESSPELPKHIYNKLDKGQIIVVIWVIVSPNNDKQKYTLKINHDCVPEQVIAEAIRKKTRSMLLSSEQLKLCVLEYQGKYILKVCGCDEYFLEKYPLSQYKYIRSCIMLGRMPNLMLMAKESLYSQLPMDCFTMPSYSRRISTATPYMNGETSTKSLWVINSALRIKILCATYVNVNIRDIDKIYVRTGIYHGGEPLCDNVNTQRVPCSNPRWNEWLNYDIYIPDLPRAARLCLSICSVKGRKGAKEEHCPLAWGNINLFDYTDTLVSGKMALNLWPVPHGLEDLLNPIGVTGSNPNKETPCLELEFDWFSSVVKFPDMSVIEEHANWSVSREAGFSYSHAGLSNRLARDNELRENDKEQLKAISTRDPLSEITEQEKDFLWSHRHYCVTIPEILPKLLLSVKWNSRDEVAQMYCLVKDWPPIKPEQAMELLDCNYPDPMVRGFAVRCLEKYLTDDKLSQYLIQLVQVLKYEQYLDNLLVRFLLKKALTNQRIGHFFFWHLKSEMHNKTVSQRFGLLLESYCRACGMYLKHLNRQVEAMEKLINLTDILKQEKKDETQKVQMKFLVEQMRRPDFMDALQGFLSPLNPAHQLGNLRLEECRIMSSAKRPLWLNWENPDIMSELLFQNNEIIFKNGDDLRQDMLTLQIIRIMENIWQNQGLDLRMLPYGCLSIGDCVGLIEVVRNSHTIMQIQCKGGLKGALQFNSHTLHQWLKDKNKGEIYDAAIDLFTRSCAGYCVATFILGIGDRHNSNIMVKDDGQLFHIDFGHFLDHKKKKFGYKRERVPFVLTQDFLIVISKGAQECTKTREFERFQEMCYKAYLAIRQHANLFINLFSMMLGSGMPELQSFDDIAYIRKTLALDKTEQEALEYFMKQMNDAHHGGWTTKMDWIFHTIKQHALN
PI3K-alpha, sequence (P27986 whole entry partner, species assumed): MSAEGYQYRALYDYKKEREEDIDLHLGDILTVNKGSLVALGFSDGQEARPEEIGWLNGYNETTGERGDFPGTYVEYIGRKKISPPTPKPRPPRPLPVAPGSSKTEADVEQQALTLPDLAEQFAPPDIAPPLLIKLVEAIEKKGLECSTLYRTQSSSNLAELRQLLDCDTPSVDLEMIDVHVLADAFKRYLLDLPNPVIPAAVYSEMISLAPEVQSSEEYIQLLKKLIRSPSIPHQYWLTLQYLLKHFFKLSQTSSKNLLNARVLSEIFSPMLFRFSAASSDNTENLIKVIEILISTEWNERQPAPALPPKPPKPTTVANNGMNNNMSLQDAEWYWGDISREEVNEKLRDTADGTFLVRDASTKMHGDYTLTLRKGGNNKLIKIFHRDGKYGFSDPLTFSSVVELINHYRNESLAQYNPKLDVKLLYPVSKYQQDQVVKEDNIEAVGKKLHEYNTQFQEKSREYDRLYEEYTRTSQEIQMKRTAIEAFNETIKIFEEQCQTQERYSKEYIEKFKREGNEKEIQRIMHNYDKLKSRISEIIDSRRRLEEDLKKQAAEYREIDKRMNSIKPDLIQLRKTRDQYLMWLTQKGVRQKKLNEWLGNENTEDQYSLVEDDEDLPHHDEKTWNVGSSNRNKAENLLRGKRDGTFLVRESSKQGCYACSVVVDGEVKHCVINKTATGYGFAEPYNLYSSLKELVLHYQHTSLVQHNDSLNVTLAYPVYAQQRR

Compound | IC50 (PI3K-gamma) [nM] | IC50 (PI3K-alpha) [nM] | IC50 (mTOR) [nM] | IC50 (MDA468) [nM] | IC50 (LNCap) [nM]
C[C@@H]1COCCN1c1cc(N2C3CCC2COC3)nc(-c2ccc(NC(=O)Nc3ccc(OCCN(C)C)cc3)cc2)n1 [1-{4-[2-(dimethylamino)ethoxy]phenyl}-3-(4-{4-[(3R)-3-methylmorpholin-4-yl]-6-(3-oxa-8-azabicyclo[3.2.1]oct-8-yl)pyrimidin-2-yl}phenyl)urea] | 6470 | 853 | 1.55 | 13 | 4
O=C(Nc1ccc(-c2nc(N3C4CCC3COC4)c(Cl)c(N3C4CCC3COC4)n2)cc1)Nc1cccnc1 [1-[4-(5-chloro-4,6-di-3-oxa-8-azabicyclo[3.2.1]oct-8-ylpyrimidin-2-yl)phenyl]-3-pyridin-3-ylurea] | 932 | 922 | 0.655 | 220 | 48
CC(C)Nc1cc(N2C3CCC2COC3)nc(-c2ccc(NC(=O)Nc3ccc(CN(C)C)cc3)cc2)n1 [1-{4-[(dimethylamino)methyl]phenyl}-3-(4-{4-[(1-methylethyl)amino]-6-(3-oxa-8-azabicyclo[3.2.1]oct-8-yl)pyrimidin-2-yl}phenyl)urea] | 3880 | 1190 | 2.65 | 120 | 120
O=C(Nc1ccncc1)Nc1ccc(-c2nc(C3CCOCC3)cc(N3C4CCC3COC4)n2)cc1 [1-{4-[4-(3-oxa-8-azabicyclo[3.2.1]oct-8-yl)-6-(tetrahydro-2H-pyran-4-yl)pyrimidin-2-yl]phenyl}-3-pyridin-4-ylurea] | 7980 | 1780 | 0.365 | 4 | ≤ 0.8
O=C(Nc1ccncc1)Nc1ccc(-c2nc(NC3CCOCC3)cc(N3C4CCC3COC4)n2)cc1 [1-{4-[4-(3-oxa-8-azabicyclo[3.2.1]oct-8-yl)-6-(tetrahydro-2H-pyran-4-ylamino)pyrimidin-2-yl]phenyl}-3-pyridin-4-ylurea] | 12000 | 2010 | 3.8 | 40 | 40
CC(C)N1CCN(C(=O)c2ccc(NC(=O)Nc3ccc(-c4nc(C5CCOCC5)cc(N5C6CCC5COC6)n4)cc3)cc2)CC1 [1-(4-{[4-(1-methylethyl)piperazin-1-yl]carbonyl}phenyl)-3-{4-[4-(3-oxa-8-azabicyclo[3.2.1]oct-8-yl)-6-(tetrahydro-2H-pyran-4-yl)pyrimidin-2-yl]phenyl}urea] | 3210 | 353 | 0.295 | 0.8 | ≤ 0.8
CC(C)Nc1cc(N2C3CCC2COC3)nc(-c2ccc(NC(=O)Nc3ccc(OCCN4CCCC4)cc3)cc2)n1 [1-(4-{4-[(1-methylethyl)amino]-6-(3-oxa-8-azabicyclo[3.2.1]oct-8-yl)pyrimidin-2-yl}phenyl)-3-[4-(2-pyrrolidin-1-ylethoxy)phenyl]urea] | 4730 | 1320 | 3.05 | 55 | 50
O=C(Nc1ccncc1)Nc1ccc(-c2nc(N3C4CCC3COC4)cc(N3C[C@H]4C[C@@H]3CO4)n2)cc1 [1-(4-{4-[(1R,4R)-2-oxa-5-azabicyclo[2.2.1]hept-5-yl]-6-(3-oxa-8-azabicyclo[3.2.1]oct-8-yl)pyrimidin-2-yl}phenyl)-3-pyridin-4-ylurea] | 7430 | 1890 | 2.25 | 110 | 90
CN1CCN(c2ccc(NC(=O)Nc3ccc(-c4nc(NC5CCOCC5)cc(N5C6CCC5COC6)n4)cc3)cc2)CC1 [1-[4-(4-methylpiperazin-1-yl)phenyl]-3-{4-[4-(3-oxa-8-azabicyclo[3.2.1]oct-8-yl)-6-(tetrahydro-2H-pyran-4-ylamino)pyrimidin-2-yl]phenyl}urea] | 9230 | 2260 | 7.5 | 10 | 7
C[C@@H]1COCCN1c1cc(N2C3CCC2COC3)nc(-c2ccc(NC(=O)Nc3ccncc3)cc2)n1 [1-(4-{4-[(3R)-3-methylmorpholin-4-yl]-6-(3-oxa-8-azabicyclo[3.2.1]oct-8-yl)pyrimidin-2-yl}phenyl)-3-pyridin-4-ylurea] | 778 | 314 | 0.645 | 5 | 1
CCNC(=O)Nc1ccc(-c2nc(CN(C)C)cc(N3C4CCC3COC4)n2)cc1 [1-(4-{4-[(dimethylamino)methyl]-6-(3-oxa-8-azabicyclo[3.2.1]oct-8-yl)pyrimidin-2-yl}phenyl)-3-ethylurea] | 12600 | 6240 | 40 | 3000 | 1100
C[C@@H]1COCCN1c1cc(N2C3CCC2COC3)nc(-c2ccc(NC(=O)Nc3ccc(C(=O)N4CCN(C)CC4)cc3)cc2)n1 [1-(4-{4-[(3R)-3-methylmorpholin-4-yl]-6-(3-oxa-8-azabicyclo[3.2.1]oct-8-yl)pyrimidin-2-yl}phenyl)-3-{4-[(4-methylpiperazin-1-yl)carbonyl]phenyl}urea] | 1130 | 78 | 0.75 | 0.8 | ≤ 0.8
CN(C)CCOc1ccc(NC(=O)Nc2ccc(-c3nc(C4CCOCC4)cc(N4C5CCC4COC5)n3)cc2)cc1 [1-{4-[2-(dimethylamino)ethoxy]phenyl}-3-{4-[4-(3-oxa-8-azabicyclo[3.2.1]oct-8-yl)-6-(tetrahydro-2H-pyran-4-yl)pyrimidin-2-yl]phenyl}urea] | 7300 | 1460 | 1.15 | 11 | 4
CN1CCN(Cc2ccc(NC(=O)Nc3ccc(-c4nc(N5C6CCC5COC6)cc(N5C[C@H]6C[C@@H]5CO6)n4)cc3)cc2)CC1 [1-{4-[(4-methylpiperazin-1-yl)methyl]phenyl}-3-(4-{4-[(1R,4R)-2-oxa-5-azabicyclo[2.2.1]hept-5-yl]-6-(3-oxa-8-azabicyclo[3.2.1]oct-8-yl)pyrimidin-2-yl}phenyl)urea] | 7590 | 1190 | 9.9 | 190 | 180
CC(C)N1CCN(C(=O)c2ccc(NC(=O)Nc3ccc(-c4nc(N5C6CCC5COC6)cc(N5CCOC[C@H]5C)n4)cc3)cc2)CC1 [1-(4-{[4-(1-methylethyl)piperazin-1-yl]carbonyl}phenyl)-3-(4-{4-[(3R)-3-methylmorpholin-4-yl]-6-(3-oxa-8-azabicyclo[3.2.1]oct-8-yl)pyrimidin-2-yl}phenyl)urea] | 1200 | 123 | 0.6 | 0.8 | ≤ 0.8
CC(C)Nc1cc(N2C3COCC2COC3)nc(-c2ccc(NC(=O)Nc3ccncc3)cc2)n1 [1-{4-[4-(3,7-dioxa-9-azabicyclo[3.3.1]non-9-yl)-6-(isopropylamino)pyrimidin-2-yl]phenyl}-3-pyridin-4-ylurea] | 9240 | 1520 | 5 | 400 | 280
O=C(Nc1ccc(-c2nc(NC3CCOCC3)cc(N3C4CCC3COC4)n2)cc1)Nc1cccnc1 [1-{4-[4-(3-oxa-8-azabicyclo[3.2.1]oct-8-yl)-6-(tetrahydro-2H-pyran-4-ylamino)pyrimidin-2-yl]phenyl}-3-pyridin-3-ylurea] | ≥ 10000 | 2680 | 3.3 | 160 | 50
